Reference: ChEMBL document CHEMBL3621099, “Design and synthesis of carbazole carboxamides as promising inhibitors of Bruton's tyrosine kinase (BTK) and Janus kinase 2 (JAK2)” (Bioorg Med Chem Lett, 2015)

Columns and labels:
[1] = biological target: Tyrosine-protein kinase BTK (Homo sapiens, UniProt Q06187); test: Inhibition of human recombinant BTK
[2] = biological target: Tyrosine-protein kinase JAK2 (Homo sapiens, UniProt O60674); test: Inhibition of JAK2 (unknown origin)
Chain of Tyrosine-protein kinase JAK2 (O60674 whole entry): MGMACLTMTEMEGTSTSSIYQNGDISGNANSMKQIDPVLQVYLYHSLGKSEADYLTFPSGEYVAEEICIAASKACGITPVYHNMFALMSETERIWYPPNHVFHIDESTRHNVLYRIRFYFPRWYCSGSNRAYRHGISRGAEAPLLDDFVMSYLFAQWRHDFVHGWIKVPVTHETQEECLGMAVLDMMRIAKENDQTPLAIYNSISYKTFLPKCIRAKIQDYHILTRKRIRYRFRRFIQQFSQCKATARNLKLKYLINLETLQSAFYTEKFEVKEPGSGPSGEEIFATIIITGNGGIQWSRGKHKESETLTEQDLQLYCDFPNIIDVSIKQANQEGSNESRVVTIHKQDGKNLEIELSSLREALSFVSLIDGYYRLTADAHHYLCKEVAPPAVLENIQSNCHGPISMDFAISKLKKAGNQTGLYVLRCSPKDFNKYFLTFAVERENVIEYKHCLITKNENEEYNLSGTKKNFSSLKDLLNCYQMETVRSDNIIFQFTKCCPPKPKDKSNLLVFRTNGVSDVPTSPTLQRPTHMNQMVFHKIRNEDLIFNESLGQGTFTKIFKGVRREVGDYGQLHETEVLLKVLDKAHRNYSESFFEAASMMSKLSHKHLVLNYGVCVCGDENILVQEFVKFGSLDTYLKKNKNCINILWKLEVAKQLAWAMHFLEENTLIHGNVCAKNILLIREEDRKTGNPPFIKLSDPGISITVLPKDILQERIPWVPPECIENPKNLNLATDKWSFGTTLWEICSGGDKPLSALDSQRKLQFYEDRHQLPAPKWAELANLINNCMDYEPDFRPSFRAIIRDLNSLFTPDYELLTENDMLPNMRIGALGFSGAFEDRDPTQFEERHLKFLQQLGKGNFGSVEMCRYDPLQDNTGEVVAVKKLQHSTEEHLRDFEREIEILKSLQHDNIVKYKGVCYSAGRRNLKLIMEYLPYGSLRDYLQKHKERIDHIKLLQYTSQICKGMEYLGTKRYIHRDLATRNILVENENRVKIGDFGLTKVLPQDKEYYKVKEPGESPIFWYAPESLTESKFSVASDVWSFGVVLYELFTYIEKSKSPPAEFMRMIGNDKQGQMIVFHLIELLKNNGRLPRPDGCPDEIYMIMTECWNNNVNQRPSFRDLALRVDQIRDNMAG

Chain of Tyrosine-protein kinase BTK (Q06187 whole entry): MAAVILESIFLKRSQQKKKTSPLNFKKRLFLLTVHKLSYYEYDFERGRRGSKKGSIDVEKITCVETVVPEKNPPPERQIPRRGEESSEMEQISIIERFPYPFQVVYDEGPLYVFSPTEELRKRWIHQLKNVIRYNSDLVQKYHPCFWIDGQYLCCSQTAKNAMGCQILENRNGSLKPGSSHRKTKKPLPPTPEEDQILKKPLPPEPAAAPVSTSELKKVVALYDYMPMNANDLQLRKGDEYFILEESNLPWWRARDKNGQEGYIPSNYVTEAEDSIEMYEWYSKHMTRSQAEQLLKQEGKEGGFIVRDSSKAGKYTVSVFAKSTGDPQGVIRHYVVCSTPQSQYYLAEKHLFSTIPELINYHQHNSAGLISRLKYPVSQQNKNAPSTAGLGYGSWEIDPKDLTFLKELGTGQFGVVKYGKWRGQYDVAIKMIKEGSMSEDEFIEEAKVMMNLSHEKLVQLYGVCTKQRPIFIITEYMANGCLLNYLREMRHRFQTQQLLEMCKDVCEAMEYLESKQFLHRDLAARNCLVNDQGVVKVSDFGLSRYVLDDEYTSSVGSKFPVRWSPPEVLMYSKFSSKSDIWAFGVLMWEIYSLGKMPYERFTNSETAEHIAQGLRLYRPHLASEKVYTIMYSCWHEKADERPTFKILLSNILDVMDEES

IC50 [1] [µM] | IC50 [2] [µM] | Compound
0.461 | – | NC(=O)c1cc(-c2ccc(Cl)c(Cl)c2)cc2c1[nH]c1ccc(C(=O)N3CCOCC3)cc12
0.36 | – | COc1cccc(-c2cc(C(N)=O)c3[nH]c4ccc(C(=O)N5CCOCC5)cc4c3c2)c1
0.11 | – | CN1CCN(C(=O)c2ccc3[nH]c4c(C(N)=O)cc(-c5ccc(Cl)cc5)cc4c3c2)CC1
0.028 | – | COc1cccc(-c2ccc(C(N)=O)c3[nH]c4ccc(C(=O)N5CCN(C)CC5)cc4c23)c1
0.088 | – | CC(=O)Nc1cccc(-c2ccc(C(N)=O)c3[nH]c4ccc(C(=O)N5CCN(C)CC5)cc4c23)c1
0.029 | – | COc1ccc(-c2ccc(C(N)=O)c3[nH]c4ccc(C(=O)N5CCN(C)CC5)cc4c23)cc1
0.039 | – | CC(=O)Nc1ccc(-c2ccc(C(N)=O)c3[nH]c4ccc(C(=O)N5CCN(C)CC5)cc4c23)cc1
0.032 | – | COc1cccc(-c2ccc(C(N)=O)c3[nH]c4cc(C(=O)N5CCN(C)CC5)ccc4c23)c1
0.03 | – | CC(=O)Nc1cccc(-c2ccc(C(N)=O)c3[nH]c4cc(C(=O)N5CCN(C)CC5)ccc4c23)c1
0.055 | – | COc1ccc(-c2ccc(C(N)=O)c3[nH]c4cc(C(=O)N5CCN(C)CC5)ccc4c23)cc1
0.015 | – | CC(=O)Nc1ccc(-c2ccc(C(N)=O)c3[nH]c4cc(C(=O)N5CCN(C)CC5)ccc4c23)cc1
0.024 | – | Cc1ccccc1-c1ccc(C(N)=O)c2[nH]c3cc(C(=O)N4CCN(C)CC4)ccc3c12
0.144 | – | COc1ccccc1-c1ccc(C(N)=O)c2[nH]c3cc(C(=O)N4CCN(C)CC4)ccc3c12
0.038 | – | CN1CCN(C(=O)c2ccc3c(c2)[nH]c2c(C(N)=O)ccc(-c4cccc(Cl)c4)c23)CC1
0.071 | – | CNC(=O)c1cccc(-c2ccc(C(N)=O)c3[nH]c4cc(C(=O)N5CCN(C)CC5)ccc4c23)c1
0.059 | – | CN1CCN(C(=O)c2ccc3c(c2)[nH]c2c(C(N)=O)ccc(-c4ccc(Cl)cc4)c23)CC1
0.103 | – | CN1CCN(C(=O)c2ccc3c(c2)[nH]c2c(C(N)=O)ccc(-c4ccc(C(C)(C)C)cc4)c23)CC1
0.044 | – | CNC(=O)c1ccc(-c2ccc(C(N)=O)c3[nH]c4cc(C(=O)N5CCN(C)CC5)ccc4c23)cc1
0.127 | – | CN1CCN(C(=O)c2ccc3c(c2)[nH]c2c(C(N)=O)ccc(-c4ccc(Oc5ccccc5)cc4)c23)CC1
0.101 | – | CN1CCN(C(=O)c2ccc3c(c2)[nH]c2c(C(N)=O)ccc(-c4ccc(Cl)c(Cl)c4)c23)CC1

IC50 [1] [µM] | IC50 [2] [µM] | Compound
0.013 | – | CN1CCN(C(=O)c2ccc3c(c2)[nH]c2c(C(N)=O)ccc(-c4cccc(Cl)c4Cl)c23)CC1
0.0069 | – | CN1CCN(C(=O)c2ccc3c(c2)[nH]c2c(C(N)=O)ccc(-c4cccc(F)c4F)c23)CC1
0.032 | – | Cc1c(Cl)cccc1-c1ccc(C(N)=O)c2[nH]c3cc(C(=O)N4CCN(C)CC4)ccc3c12
0.019 | – | Cc1c(N)cccc1-c1ccc(C(N)=O)c2[nH]c3cc(C(=O)N4CCN(C)CC4)ccc3c12
0.022 | – | CN1CCN(C(=O)c2ccc3c(c2)[nH]c2c(C(N)=O)ccc(-c4ccc(F)cc4F)c23)CC1
0.012 | – | CN1CCN(C(=O)c2ccc3c(c2)[nH]c2c(C(N)=O)ccc(-c4c(F)cccc4F)c23)CC1
0.0072 | – | Cc1c(NC(=O)c2ccccc2)cccc1-c1ccc(C(N)=O)c2[nH]c3cc(C(=O)N4CCN(C)CC4)ccc3c12
0.0038 | – | Cc1c(NC(=O)c2ccc(F)cc2)cccc1-c1ccc(C(N)=O)c2[nH]c3cc(C(=O)N4CCN(C)CC4)ccc3c12
0.0035 | – | Cc1c(NC(=O)c2ccc(N(C)C)cc2)cccc1-c1ccc(C(N)=O)c2[nH]c3cc(C(=O)N4CCN(C)CC4)ccc3c12
0.012 | – | Cc1c(NC(=O)c2ccc(C(C)(C)C)cc2)cccc1-c1ccc(C(N)=O)c2[nH]c3cc(C(=O)N4CCN(C)CC4)ccc3c12
0.0094 | – | CN1CCN(C(=O)c2ccc3c(c2)[nH]c2c(C(N)=O)ccc(-c4cccc(NC(=O)c5ccc(F)cc5)c4F)c23)CC1
0.039 | – | CN1CCN(C(=O)c2ccc3c(c2)[nH]c2c(C(N)=O)ccc(-c4cccc(NC(=O)c5ccc(F)cc5)c4)c23)CC1
0.189 | 0.0017 | NC(=O)c1cc(-c2cccc(Cl)c2)cc2c1[nH]c1ccc(C(=O)N3CCOCC3)cc12
0.327 | 0.002 | COc1ccc(-c2cc(C(N)=O)c3[nH]c4ccc(C(=O)N5CCOCC5)cc4c3c2)cc1
0.308 | 0.0026 | NC(=O)c1cc(-c2ccc(Cl)cc2)cc2c1[nH]c1ccc(C(=O)N3CCOCC3)cc12
0.404 | 0.0043 | COc1cccc(-c2cc(C(N)=O)c3[nH]c4cc(C(=O)N5CCN(C)CC5)ccc4c3c2)c1
0.436 | 0.0055 | COc1ccc(-c2cc(C(N)=O)c3[nH]c4cc(C(=O)N5CCN(C)CC5)ccc4c3c2)cc1
0.812 | 0.0062 | CN1CCN(C(=O)c2ccc3c(c2)[nH]c2c(C(N)=O)cc(-c4ccc(Cl)c(Cl)c4)cc23)CC1
0.379 | 0.027 | CC(=O)Nc1cccc(-c2cc(C(N)=O)c3[nH]c4cc(C(=O)N5CCN(C)CC5)ccc4c3c2)c1
